We go through 25 compounds from ChEMBL document CHEMBL5532759, “Discovery of dibenzylbutane lignan LCA derivatives as potent anti-inflammatory agents” (RSC Med Chem, 2024).

Active and inactive are the calls of the source. The calls are words filed in the database; no cut-off is given here.

Data set [1] is described as follows: Cytotoxicity against mouse RAW264.7 cells assessed as survival rate at 20 uM incubated for 24 hrs by CCK-8 assay relative to control (reference value: 100 %). It is filed as toxicity, cell-based. As to conditions: read-out: Survival.
Data set [2] relates to RAW264.7. As to the kind of experiment: Antiinflammatory activity in LPS-induced mouse RAW264.7 cells assessed as inhibition of NO release at 20 uM preincubated for 4 hrs followed by LPS addition for 24 hrs by Griess reagent based assay relative to control (reference value: 100 %). It counts as functional. The arrangement: scale not given: the % may be the effect or the level left. As to conditions: time 28 hrs.

The test system of data set [3] is RAW264.7. Kind of data set: Antiinflammatory activity in LPS-induced mouse RAW264.7 cells assessed as inhibition of NO release preincubated for 4 hrs followed by LPS addition for 24 hrs by Griess reagent based assay. It counts as functional, cell-based. As to conditions: dose 2.5-20 µM, time 28.0 hrs.
The test system of data set [4] is RAW264.7. As to the kind of experiment: Antiinflammatory activity in LPS-induced mouse RAW264.7 cells assessed as inhibition of IL-1beta secretion at 2.5 to 20 uM preincubated for 1 hr followed by LPS addition for 24 hrs by ELISA method. As to conditions: dose 2.5-20 µM, time 25.0 hrs. It counts as functional, cell-based.
Data set [5] concerns RAW264.7. As to the kind of experiment: Antiinflammatory activity in LPS-induced mouse RAW264.7 cells assessed as inhibition of IL-6 secretion at 2.5 to 20 uM preincubated for 1 hr followed by LPS addition for 24 hrs by ELISA method. It is filed as functional, cell-based. As to conditions: dose 2.5-20 µM, time 25.0 hrs. For orientation: ELISA stands for enzyme-linked immunosorbent assay.

Data set [6] relates to RAW264.7. As to the kind of experiment: Antiinflammatory activity in LPS-induced mouse RAW264.7 cells assessed as inhibition of TNFalpha secretion at 2.5 to 20 uM preincubated for 1 hr followed by LPS addition for 24 hrs by ELISA method. It counts as functional, cell-based. As to conditions: dose 2.5-20 µM, time 25.0 hrs.
Data set [7] deals with RAW264.7. As to the kind of experiment: Antiinflammatory activity in LPS-induced mouse RAW264.7 cells assessed as reduction in IL-1beta mRNA level preincubated for 1 hr followed by LPS addition for 24 hrs by RT-qPCR analysis. It counts as functional, cell-based. As to conditions: dose 10-20 µM, time 25.0 hrs.
Data set [8] has as its system RAW264.7. As to the kind of experiment: Antiinflammatory activity in LPS-induced mouse RAW264.7 cells assessed as reduction in IL-6 mRNA level preincubated for 1 hr followed by LPS addition for 24 hrs by RT-qPCR analysis. It counts as functional, cell-based. As to conditions: dose 10-20 µM, time 25.0 hrs. On the technique in general: Quantitative PCR measures a nucleic acid by following its amplification.

In data set [9] the test system is RAW264.7. As to the kind of experiment: Antiinflammatory activity in LPS-induced mouse RAW264.7 cells assessed as reduction in TNFalpha mRNA level incubated for 1 hr followed by LPS addition for 24 hrs by RT-qPCR analysis. It is filed as functional, cell-based. As to conditions: dose 10-20 µM, time 25.0 hrs.
The test system of data set [10] is RAW264.7. Kind of data set: Inhibition of NF-kappaB signaling in LPS-induced mouse RAW264.7 cells assessed as reduction in IkBalpha degradation preincubated for 1 hr followed by LPS addition for 1 hr by Western blot analysis. It counts as cell-based. As to conditions: dose 10-20 µM, time 2.0 hrs.
Data set [11] concerns RAW264.7. Kind of data set: Inhibition of NF-kB signaling in LPS-induced mouse RAW264.7 cells assessed as reduction in p65 phosphorylation preincubated for 1 hr followed by LPS addition for 1 hr by Western blot analysis. It counts as cell-based. As to conditions: dose 10-20 µM, time 2.0 hrs. A general note: In western blotting, separated proteins are transferred to a membrane and probed.

The test system of data set [12] is RAW264.7. As to the kind of experiment: Inhibition of NF-kB p65 nuclear translocation from cytoplasm to nucleus in mouse RAW264.7 cells at 20 uM preincubated for 1 hr followed by LPS addition for 4 hrs by immunofluorescence assay. It is filed as functional, cell-based. As to conditions: time 5.0 hrs.
In data set [13] the test system is Mus musculus. Kind of data set: Antiinflammatory activity against carrageenan-induced paw edema in ICR mouse assessed as reduction in paw thickness at 5 to 20 mg/kg, ip measured at 60 to 240 mins. It counts as functional, organism-based. As to conditions: dose 5-20 mg/kg, time 60-240 min.
Data set [14] deals with Mus musculus. As to the kind of experiment: Antiinflammatory activity against carrageenan-induced paw edema in ip dosed ICR mouse assessed as reduction in IL-1beta level by ELISA method. It is filed as functional, organism-based. As to conditions: dose 5-20 mg/kg.
For data set [15], the system named is Mus musculus. Kind of data set: Antiinflammatory activity against carrageenan-induced paw edema in ip dosed ICR mouse assessed as reduction in IL-6 level by ELISA method. It counts as functional, organism-based. As to conditions: dose 5-20 mg/kg.
The subject of data set [16] is Mus musculus. Kind of data set: Antiinflammatory activity against carrageenan-induced paw edema in ip dosed ICR mouse assessed as reduction in TNF-alpha level by ELISA method. It counts as functional, organism-based. As to conditions: dose 5-20 mg/kg.
Data set [17] concerns Mus musculus. Kind of data set: Antiinflammatory activity against carrageenan-induced paw edema in ICR mouse assessed as inhibition of paw swelling at 5 to 20 mg/kg, ip measured after 120 min. It is filed as functional, organism-based. As to conditions: dose 5-20 mg/kg.
The test system of data set [18] is Mus musculus. Kind of data set: Antiinflammatory activity against carrageenan-induced paw edema in ICR mouse assessed as reduction in paw thickness at 20 mg/kg, ip measured at 60 to 240 mins. It counts as functional, organism-based. As to conditions: time 60-240 min.
The test system of data set [19] is Mus musculus. As to the kind of experiment: Antiinflammatory activity against carrageenan-induced paw edema in ICR mouse assessed as inhibition of paw swelling at 20 mg/kg, ip measured after 120 min. It counts as functional, organism-based.

`COc1cc(C[C@H](C(=O)NCc2cccc(F)c2)[C@@H](Cc2cc(OC)c(O)c(OC)c2)C(=O)NCc2cccc(F)c2)cc(OC)c1O`: in [1], the viability at 24 h, 20 µM is 99.4%. For the same compound, the Activity in [2] is recorded as 41.9%.
With `COc1ccc(CNC(=O)[C@@H](Cc2cc(OC)c(O)c(OC)c2)[C@@H](Cc2cc(OC)c(O)c(OC)c2)C(=O)NCc2ccc(OC)cc2)cc1`, the viability at 24 h, 20 µM in data set [1] came to 99.9%. The Activity in data set [2] was determined as 45.9%.
Turning to `COc1cc(C[C@H](C(=O)NCc2ccc(F)cc2)[C@@H](Cc2cc(OC)c(O)c(OC)c2)C(=O)NCc2ccc(F)cc2)cc(OC)c1O`, in [1], the viability at 24 h, 20 µM amounted to 103%. The Activity in data set [2] is on record as 43.1%.
For `COc1cc(C[C@H](C(=O)NCc2ccc(C(F)(F)F)cc2)[C@@H](Cc2cc(OC)c(O)c(OC)c2)C(=O)NCc2ccc(C(F)(F)F)cc2)cc(OC)c1O`, in data set [1], the viability at 24 h, 20 µM stood at 99.1%. For the same compound, the Activity in data set [2] is 31.1%; in data set [3], “Dose-Dependent Effect”; in [7], “Dose-Dependent Effect”; in data set [8], “Dose-Dependent Effect”; in data set [9], “Dose-Dependent Effect”; in data set [14], “Dose-Dependent Effect”. Also, the Activity entry in data set [15] and in [16] was “Dose-Dependent Effect” in each case. For the same compound, the outcome in data set [4], in [5], in [6] and in [13] was Active. Further, the inhibition entry in data set [10] and in [11] was “Dose-Dependent Effect” each time. Besides, the inhibition entry in [12] and in data set [17] was “Active” each time.
Turning to `COc1cc(C[C@H](C(=O)NCc2ccccn2)[C@@H](Cc2cc(OC)c(O)c(OC)c2)C(=O)NCc2ccccn2)cc(OC)c1O`, in data set [1], the viability at 24 h, 20 µM was 92.2%. Moreover, the Activity in data set [2] turned out to be 48.1%.
Take `COc1cc(/C=C/C(=O)OC[C@H](Cc2cc(OC)c(O)c(OC)c2)[C@@H](COC(=O)/C=C/c2ccc(O)c(OC)c2)Cc2cc(OC)c(O)c(OC)c2)ccc1O`: the viability at 24 h, 20 µM in data set [1] turned out to be 82.2%. Besides, the Activity in [2] is 29.5%. The inhibition result in [3] was “Dose-Dependent Effect”. In data set [18], the result was Active. In data set [19], the inhibition entry was “Active”.
Consider `COc1cc(CNC(=O)[C@@H](Cc2cc(OC)c(O)c(OC)c2)[C@@H](Cc2cc(OC)c(O)c(OC)c2)C(=O)NCc2cc(OC)cc(OC)c2)cc(OC)c1`, for which the viability at 24 h, 20 µM in data set [1] is 99.1%. Moreover, the Activity in data set [2] is given as 49.3%.
`COc1ccc(CNC(=O)[C@@H](Cc2cc(OC)c(O)c(OC)c2)[C@@H](Cc2cc(OC)c(O)c(OC)c2)C(=O)NCc2ccc(OC)cc2OC)c(OC)c1`: in data set [1], the viability at 24 h, 20 µM was found to be 98.4%. For the same compound, in [2], the Activity amounted to 47.6%.
The corresponding values for `COc1cc(CNC(=O)[C@@H](Cc2cc(OC)c(O)c(OC)c2)[C@@H](Cc2cc(OC)c(O)c(OC)c2)C(=O)NCc2ccc(O)c(OC)c2)ccc1O` are 96.6% and 49%.
The corresponding values for `COc1cc(C[C@H](C(=O)NCc2cccc(C)n2)[C@@H](Cc2cc(OC)c(O)c(OC)c2)C(=O)NCc2cccc(C)n2)cc(OC)c1O` are 93.3% and 44.7%.
The corresponding values for `COc1cc(C[C@H](C(=O)NCc2ccccc2F)[C@@H](Cc2cc(OC)c(O)c(OC)c2)C(=O)NCc2ccccc2F)cc(OC)c1O` are 105% and 47.3%.
As for `COc1cc(C[C@H](C(=O)NCc2ncccc2C)[C@@H](Cc2cc(OC)c(O)c(OC)c2)C(=O)NCc2ncccc2C)cc(OC)c1O`, the viability at 24 h, 20 µM in [1] turned out to be 85.1%. Moreover, the Activity in [2] came to 66.3%.
Turning to `COc1cccc(CNC(=O)[C@@H](Cc2cc(OC)c(O)c(OC)c2)[C@@H](Cc2cc(OC)c(O)c(OC)c2)C(=O)NCc2cccc(OC)c2)c1`, the viability at 24 h, 20 µM in data set [1] was determined as 100%. The Activity in [2] was found to be 44.2%.
For `C[C@@H]1C[C@H]2[C@@H]3CCC4=CC(=O)C=C[C@]4(C)[C@@]3(F)[C@@H](O)C[C@]2(C)[C@@]1(O)C(=O)CO` [DEXAMETHASONE], the viability at 24 h, 20 µM in [1] is 94.8%. Moreover, the Activity in data set [2] was 45.9%.
`COc1cc(C[C@H](C(=O)NCc2cc(F)cc(F)c2)[C@@H](Cc2cc(OC)c(O)c(OC)c2)C(=O)NCc2cc(F)cc(F)c2)cc(OC)c1O`: in data set [1], the viability at 24 h, 20 µM worked out at 97.8%. In data set [2], the Activity was determined as 43.9%.
For the compound `COc1cc(C[C@H](C(=O)NCc2ccc(F)cn2)[C@@H](Cc2cc(OC)c(O)c(OC)c2)C(=O)NCc2ccc(F)cn2)cc(OC)c1O`, the viability at 24 h, 20 µM in data set [1] stood at 81.3%. In addition, the Activity in [2] is given as 47.1%.
As to `COc1cc(C[C@H](C(=O)NCc2cc(C)ccn2)[C@@H](Cc2cc(OC)c(O)c(OC)c2)C(=O)NCc2cc(C)ccn2)cc(OC)c1O`, the viability at 24 h, 20 µM in [1] amounted to 83%. In addition, the Activity in [2] came to 71.5%.
The corresponding values for `COc1cc(C[C@H](C(=O)NCc2ccncc2)[C@@H](Cc2cc(OC)c(O)c(OC)c2)C(=O)NCc2ccncc2)cc(OC)c1O` are 69.5% and 46.5%.
The matching figures for `COc1cc(C[C@H](C(=O)NCc2ccc(S(C)(=O)=O)cc2)[C@@H](Cc2cc(OC)c(O)c(OC)c2)C(=O)NCc2ccc(S(C)(=O)=O)cc2)cc(OC)c1O`: 70% and 63.1%.
The corresponding values for `COc1cc(C[C@H](C(=O)NCc2ccncc2F)[C@@H](Cc2cc(OC)c(O)c(OC)c2)C(=O)NCc2ccncc2F)cc(OC)c1O` are 95.9% and 67.9%.
Turning to `COc1cc(C[C@H](C(=O)NCc2ccc(F)cc2F)[C@@H](Cc2cc(OC)c(O)c(OC)c2)C(=O)NCc2ccc(F)cc2F)cc(OC)c1O`, the viability at 24 h, 20 µM in data set [1] stood at 97.5%. Besides, in data set [2], the Activity turned out to be 46.5%.
The corresponding values for `COc1cc(C[C@H](C(=O)NCc2cccnc2C(F)(F)F)[C@@H](Cc2cc(OC)c(O)c(OC)c2)C(=O)NCc2cccnc2C(F)(F)F)cc(OC)c1O` are 90.7% and 55.1%.
Turning to `COc1cc(C[C@H](C(=O)NCc2ccccc2)[C@@H](Cc2cc(OC)c(O)c(OC)c2)C(=O)NCc2ccccc2)cc(OC)c1O`, the viability at 24 h, 20 µM in [1] stood at 103%. Further, the Activity in [2] is reported as 42.6%.
The corresponding values for `COc1cc(C[C@H](C(=O)NCc2cccnc2OC)[C@@H](Cc2cc(OC)c(O)c(OC)c2)C(=O)NCc2cccnc2OC)cc(OC)c1O` are 69.9% and 51.1%.
The corresponding values for `COc1cc(C[C@H](C(=O)NCc2ccc(C)cc2)[C@@H](Cc2cc(OC)c(O)c(OC)c2)C(=O)NCc2ccc(C)cc2)cc(OC)c1O` are 95.6% and 47%.
